Test results as given in the NIST ThermoML archive (doi:10.1021/je060271a).
Where “and” joins values, the source holds several entries; their conditions need not be identical. Equal values may be shown once.

Conditions: Liquid, Vibrating tube method

CCCCCC(=O)OCC(COC(=O)CCCCC)(COC(=O)CCCCC)COC(=O)CCCCC [pentaerythritol tetrahexanoate]
Conditions | mass density
343.16 K, 33002 kPa | 980 kg/m3
343.16 K, 33028 kPa | 980.1 kg/m3
343.16 K, 33054 kPa | 980.2 kg/m3
343.16 K, 33085 kPa | 980.1 kg/m3
343.16 K, 33111 kPa | 980.2 kg/m3
343.16 K, 33138 kPa | 980.1 kg/m3
343.16 K, 33170 kPa | 980.2 kg/m3
343.16 K, 33198 kPa | 980.2 kg/m3
343.16 K, 33224 kPa | 980.2 kg/m3
343.16 K, 33250 kPa | 980.3 kg/m3
343.16 K, 33277 kPa | 980.2 kg/m3
343.16 K, 33310 kPa | 980 kg/m3
343.16 K, 33337 kPa | 980.3 kg/m3
343.16 K, 33364 kPa | 980.3 kg/m3
343.16 K, 33397 kPa | 980.3 kg/m3
343.16 K, 33424 kPa | 980.3 kg/m3
343.16 K, 33458 kPa | 980.4 kg/m3
343.16 K, 33486 kPa | 980.4 kg/m3
343.16 K, 33515 kPa | 980.2 kg/m3
343.16 K, 33551 kPa | 980.4 kg/m3
343.16 K, 33582 kPa | 980.5 kg/m3
343.16 K, 33613 kPa | 980.4 kg/m3
343.16 K, 33643 kPa | 980.7 kg/m3
343.16 K, 33678 kPa | 980.5 kg/m3
343.16 K, 33700 kPa | 980.5 kg/m3
343.16 K, 33718 kPa | 980.5 kg/m3
343.16 K, 33738 kPa | 980.5 kg/m3
343.16 K, 33761 kPa | 980.6 kg/m3
343.16 K, 33781 kPa | 980.6 kg/m3
343.16 K, 33806 kPa | 980.6 kg/m3
343.16 K, 33826 kPa | 980.6 kg/m3
343.16 K, 33846 kPa | 980.6 kg/m3
343.16 K, 33868 kPa | 980.6 kg/m3
343.16 K, 33883 kPa | 980.7 kg/m3
343.16 K, 33898 kPa | 980.7 kg/m3
343.16 K, 33914 kPa | 980.8 kg/m3
343.16 K, 33932 kPa | 980.6 kg/m3
343.16 K, 33948 kPa | 980.7 kg/m3
343.16 K, 33966 kPa | 980.7 kg/m3
343.16 K, 33982 kPa | 980.5 kg/m3
343.16 K, 33995 kPa | 980.7 kg/m3
343.16 K, 34005 kPa | 980.7 kg/m3
343.16 K, 34016 kPa | 980.8 kg/m3
343.16 K, 34026 kPa | 980.7 kg/m3
343.16 K, 34034 kPa | 980.8 kg/m3
343.16 K, 34035 kPa | 980.7 kg/m3
343.16 K, 34036 kPa | 980.8 kg/m3
343.16 K, 34037 kPa | 980.9 kg/m3 and 980.6 kg/m3
343.16 K, 34047 kPa | 980.7 kg/m3
343.16 K, 34048 kPa | 980.7 kg/m3
343.16 K, 34058 kPa | 980.8 kg/m3
343.16 K, 34091 kPa | 980.7 kg/m3
343.16 K, 34101 kPa | 980.8 kg/m3
343.16 K, 34114 kPa | 980.8 kg/m3
343.16 K, 34125 kPa | 980.7 kg/m3
343.16 K, 34137 kPa | 980.8 kg/m3
343.16 K, 34151 kPa | 980.7 kg/m3
343.16 K, 34163 kPa | 980.8 kg/m3
343.16 K, 34177 kPa | 980.7 kg/m3
343.16 K, 34189 kPa | 980.8 kg/m3
343.16 K, 34190 kPa | 980.9 kg/m3
343.16 K, 34198 kPa | 980.8 kg/m3
343.16 K, 34203 kPa | 980.8 kg/m3
343.16 K, 34211 kPa | 980.7 kg/m3
343.16 K, 34217 kPa | 980.8 kg/m3
343.16 K, 34223 kPa | 980.8 kg/m3
343.16 K, 34231 kPa | 980.7 kg/m3
343.16 K, 34237 kPa | 980.9 kg/m3
343.16 K, 34243 kPa | 980.7 kg/m3
343.16 K, 34248 kPa | 980.8 kg/m3
343.16 K, 34251 kPa | 980.9 kg/m3
343.16 K, 34253 kPa | 980.9 kg/m3
343.16 K, 34254 kPa | 980.8 kg/m3 and 980.9 kg/m3
343.16 K, 34255 kPa | 980.8 kg/m3 and 980.9 kg/m3
343.16 K, 34256 kPa | 980.8 kg/m3 and 980.9 kg/m3 and 980.7 kg/m3
343.16 K, 34257 kPa | 980.9 kg/m3
343.16 K, 34258 kPa | 980.8 kg/m3 and 980.7 kg/m3
343.16 K, 34259 kPa | 981 kg/m3
343.16 K, 34262 kPa | 980.9 kg/m3
343.16 K, 34263 kPa | 980.8 kg/m3 and 980.9 kg/m3
343.16 K, 34264 kPa | 980.9 kg/m3
343.16 K, 34265 kPa | 980.9 kg/m3 and 980.8 kg/m3
343.16 K, 34266 kPa | 980.8 kg/m3 and 980.9 kg/m3
343.16 K, 34267 kPa | 980.8 kg/m3 and 981 kg/m3 and 980.9 kg/m3
343.16 K, 34268 kPa | 980.8 kg/m3 and 980.9 kg/m3
343.16 K, 34269 kPa | 980.8 kg/m3 and 980.9 kg/m3
343.16 K, 34270 kPa | 980.9 kg/m3 and 980.8 kg/m3
343.16 K, 34271 kPa | 980.8 kg/m3
343.16 K, 34272 kPa | 981 kg/m3
343.16 K, 34273 kPa | 980.9 kg/m3
343.16 K, 34274 kPa | 980.9 kg/m3
343.16 K, 34275 kPa | 980.8 kg/m3
343.16 K, 34276 kPa | 980.9 kg/m3
343.16 K, 34277 kPa | 980.9 kg/m3
343.16 K, 34278 kPa | 980.9 kg/m3
343.16 K, 34279 kPa | 980.8 kg/m3
343.16 K, 34283 kPa | 980.9 kg/m3
343.16 K, 34284 kPa | 980.9 kg/m3 and 980.8 kg/m3 and 981 kg/m3
343.16 K, 34285 kPa | 980.9 kg/m3
343.16 K, 34286 kPa | 980.8 kg/m3
343.16 K, 34287 kPa | 980.9 kg/m3 and 981 kg/m3
343.16 K, 34288 kPa | 980.9 kg/m3
343.16 K, 34289 kPa | 980.9 kg/m3
343.16 K, 34290 kPa | 980.8 kg/m3 and 980.9 kg/m3
343.16 K, 34291 kPa | 980.9 kg/m3
343.16 K, 34292 kPa | 980.9 kg/m3
343.16 K, 34293 kPa | 980.9 kg/m3
343.16 K, 34294 kPa | 980.9 kg/m3
343.16 K, 34295 kPa | 980.8 kg/m3
343.16 K, 34296 kPa | 980.9 kg/m3
343.16 K, 34297 kPa | 980.9 kg/m3
343.16 K, 34298 kPa | 980.9 kg/m3 and 981 kg/m3
343.16 K, 34300 kPa | 980.9 kg/m3
343.16 K, 34301 kPa | 980.8 kg/m3
343.16 K, 34303 kPa | 980.9 kg/m3
343.16 K, 34305 kPa | 980.9 kg/m3
343.16 K, 34307 kPa | 980.9 kg/m3
343.16 K, 34310 kPa | 981 kg/m3
343.16 K, 34312 kPa | 980.8 kg/m3
343.16 K, 34315 kPa | 980.9 kg/m3
343.16 K, 34319 kPa | 980.9 kg/m3
343.16 K, 34322 kPa | 980.9 kg/m3
343.16 K, 34326 kPa | 980.9 kg/m3
343.16 K, 34332 kPa | 980.8 kg/m3
343.16 K, 34336 kPa | 980.8 kg/m3
343.16 K, 34342 kPa | 980.9 kg/m3
343.16 K, 34350 kPa | 980.9 kg/m3
343.16 K, 34356 kPa | 980.9 kg/m3
343.16 K, 34361 kPa | 980.9 kg/m3
343.16 K, 34363 kPa | 980.9 kg/m3
343.16 K, 34369 kPa | 981 kg/m3
343.17 K, 21206 kPa | 972.4 kg/m3
343.17 K, 30224 kPa | 978.4 kg/m3
343.17 K, 30254 kPa | 978.3 kg/m3
343.17 K, 30283 kPa | 978.4 kg/m3
343.17 K, 30312 kPa | 978.5 kg/m3
343.17 K, 30333 kPa | 978.4 kg/m3
343.17 K, 30358 kPa | 978.5 kg/m3
343.17 K, 30380 kPa | 978.5 kg/m3
343.17 K, 30402 kPa | 978.4 kg/m3
343.17 K, 30428 kPa | 978.5 kg/m3
343.17 K, 30449 kPa | 978.5 kg/m3
343.17 K, 30471 kPa | 978.6 kg/m3
343.17 K, 30497 kPa | 978.5 kg/m3
343.17 K, 31456 kPa | 979.2 kg/m3
